Assay results: patent publication US11214594B2, “Antimicrobial peptide having synergistic antibacterial effect with antibiotics on multidrug resistant bacteria, and use thereof” (priority 2016, dated 2022)
In brackets after ≈: the same amount, converted by molar mass. Where a SMILES comes first, the peptide text is derived from it. [ ]: non-standard residue; d: D form.

Columns and labels:
[1] = tested on: E. coli; assay: microbe, parasite or virus in culture; format: cell-based, Escherichia coli; conditions: 16 h
How it was run: (§1)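 Broth microdilution in MH medium: bacterial strains diluted to 2×10^6 CFU were mixed with equal volumes of peptide serially diluted twofold in MH medium.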

[2] = tested on: MDREC 1229; assay: microbe, parasite or virus in culture; format: cell-based, Escherichia coli
How it was run: as §1

[3] = tested on: MDRST 8009; format: cell-based, Salmonella typhimurium; conditions: agent alone
How it was run: as §1

[4] = tested on: E. coli; assay: MIC of antibiotic during combined treatment with antimicrobial peptide; format: cell-based, Escherichia coli; conditions: for Antibiotic MIC, Erythromycin / Antibiotic MIC, Linezolid / Antibiotic MIC, Vancomycin: E. coli
How it was run: (§2)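 Using MH broth, we determined combination MICs by titrating the antibiotic into wells and then repeating under the reverse dilution scheme.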

[5] = tested on: A. baumannii; assay: as above; format: cell-based, Acinetobacter baumannii; conditions: for Antibiotic MIC, Erythromycin / Antibiotic MIC, Linezolid / Antibiotic MIC, Vancomycin: A. baumannii
How it was run: as §2

[6] = tested on: multi-drug resistant bacteria; assay: MIC, summary statements for multi-drug resistant bacteria; format: cell-based
Procedure: For the antibacterial activity, a minimal inhibitory concentration (MIC) of a peptide in which fungus bodies were not split in an MH medium with sufficient nutrients was measured.
Specifically, the strains described in the following [Table 2] were purchased and diluted with an MH medium such that the number of bacteria was 2×10^6 colony-forming units (CFUs), 100 μl of each of the diluted strains was aliquoted into a 96-well microtiter plate, and then 100 μl of a peptide solution diluted with the MH medium (solution diluted stepwise at 2: 1) was added to each well.

[7] = combined with peptide at 2 μg/ml
[8] = combined with peptide at 4 μg/ml
[9] = combined with peptide at 6 μg/ml
[10] = combined with peptide at 8 μg/ml
[11] = combined with peptide at 16 μg/ml
[12] = combined with peptide at 32 μg/ml
[13] = combined with peptide at 64 μg/ml

SMILES: CC[C@H](C)[C@H](NC(=O)[C@H](CCCCN)NC(=O)[C@H](Cc1c[nH]c2ccccc12)NC(=O)[C@@H](N)CCCNC(=N)N)C(=O)N[C@@H](Cc1ccccc1)C(=O)N[C@@H](CCCCN)C(=O)N[C@@H](CCCCN)C(=O)N[C@H](C(=O)N[C@H](CC(C)C)C(=O)N[C@@H](CCCCN)C(=O)N[C@@H](CC(C)C)C(=O)N[C@@H](CC(C)C)C(=O)N[C@@H](Cc1c[nH]cn1)C(=O)N[C@@H](CCC(=O)O)C(=O)N[C@@H](C)C(=O)N[C@@H](CCCCN)C(=O)N[C@@H](CCCCN)C(=O)N[C@@H](Cc1c[nH]c2ccccc12)C(N)=O)[C@@H](C)CC [PapMA-24, RWK IFK KIl KLL HEA KKW-NH2] (H-RWKIFKKI[dL]KLLHEAKKW-NH2; N-terminus assumed)
- Minimal inhibitory concentration MIC [1]: 32 µg/mL (≈ 13.5 µM)
- Minimal inhibitory concentration MIC [2]: 32 µg/mL (≈ 13.5 µM)
- Peptide MIC, peptide alone [2]: 32 µg/mL
- Minimal inhibitory concentration MIC [3]: 32 µg/mL (≈ 13.5 µM)
- Synergistic effect of antibacterial activity with existing antibiotics compared with PapMA-1 ([4]; E. coli and MDREC1229): level similar to that of the PapMA-1 peptide
- Antibiotic MIC, Erythromycin ([4]; erythromycin combined with peptide at 1 μg/ml): 64 µg/mL
- Antibiotic MIC, Erythromycin ([4]; erythromycin combined with peptide at 2 μg/ml): 32 µg/mL
- Antibiotic MIC, Erythromycin ([4]; erythromycin combined with peptide at 4 μg/ml): 16 µg/mL
- Antibiotic MIC, Erythromycin ([4]; erythromycin combined with peptide at 6 μg/ml): 4 µg/mL
- Antibiotic MIC, Erythromycin ([4]; erythromycin combined with peptide at 8 μg/ml): 2 µg/mL
- Antibiotic MIC, Erythromycin ([4]; erythromycin combined with peptide at 16 μg/ml): 0.5 µg/mL
- Antibiotic MIC, Erythromycin ([4]; erythromycin combined with peptide at 32 μg/ml): 0 µg/mL
- Antibiotic MIC, Erythromycin ([4]; erythromycin combined with peptide at 64 μg/ml): 0 µg/mL
- Antibiotic MIC, Linezolid ([4]; linezolid combined with peptide at 1 μg/ml): >128 µg/mL
- Antibiotic MIC, Linezolid ([4]; linezolid combined with peptide at 2 μg/ml): 128 µg/mL
- Antibiotic MIC, Linezolid ([4]; linezolid combined with peptide at 4 μg/ml): 64 µg/mL
- Antibiotic MIC, Linezolid ([4]; linezolid combined with peptide at 6 μg/ml): 32 µg/mL
- Antibiotic MIC, Linezolid ([4]; linezolid combined with peptide at 8 μg/ml): 32 µg/mL
- Antibiotic MIC, Linezolid ([4]; linezolid combined with peptide at 16 μg/ml): 8 µg/mL
- Antibiotic MIC, Linezolid ([4]; linezolid combined with peptide at 32 μg/ml): 0 µg/mL
- Antibiotic MIC, Linezolid ([4]; linezolid combined with peptide at 64 μg/ml): 0 µg/mL
- Antibiotic MIC, Vancomycin ([4]; vancomycin combined with peptide at 1 μg/ml): >128 µg/mL
- Antibiotic MIC, Vancomycin ([4]; vancomycin combined with peptide at 2 μg/ml): >128 µg/mL
- Antibiotic MIC, Vancomycin ([4]; vancomycin combined with peptide at 4 μg/ml): 128 µg/mL
- Antibiotic MIC, Vancomycin ([4]; vancomycin combined with peptide at 6 μg/ml): 32 µg/mL
- Antibiotic MIC, Vancomycin ([4]; vancomycin combined with peptide at 8 μg/ml): 16 µg/mL
- Antibiotic MIC, Vancomycin ([4]; vancomycin combined with peptide at 16 μg/ml): 8 µg/mL
- Antibiotic MIC, Vancomycin ([4]; vancomycin combined with peptide at 32 μg/ml): 0 µg/mL
- Antibiotic MIC, Vancomycin ([4]; vancomycin combined with peptide at 64 μg/ml): 0 µg/mL
- Synergistic effect of antibacterial activity with existing antibiotics compared with PapMA-1 ([5]; A. baumannii and MDRAB 12035): level similar to that of PapMA-1 peptide
- Antibiotic MIC, Erythromycin [5, 7]: 32 µg/mL
- Antibiotic MIC, Linezolid [5, 7]: >128 µg/mL
- Antibiotic MIC, Vancomycin [5, 7]: 128 µg/mL
- Antibiotic MIC, Erythromycin [5, 8]: 8 µg/mL
- Antibiotic MIC, Linezolid [5, 8]: 64 µg/mL
- Antibiotic MIC, Vancomycin [5, 8]: 64 µg/mL
- Antibiotic MIC, Erythromycin [5, 9]: 2 µg/mL
- Antibiotic MIC, Linezolid [5, 9]: 8 µg/mL
- Antibiotic MIC, Vancomycin [5, 9]: 16 µg/mL
- Antibiotic MIC, Erythromycin [5, 10]: 0.5 µg/mL
- Antibiotic MIC, Linezolid [5, 10]: 4 µg/mL
- Antibiotic MIC, Vancomycin [5, 10]: 8 µg/mL
- Antibiotic MIC, Erythromycin [5, 11]: 0 µg/mL
- Antibiotic MIC, Linezolid [5, 11]: 0 µg/mL
- Antibiotic MIC, Vancomycin [5, 11]: 0 µg/mL
- Antibiotic MIC, Erythromycin [5, 12]: 0 µg/mL
- Antibiotic MIC, Linezolid [5, 12]: 0 µg/mL
- Antibiotic MIC, Vancomycin [5, 12]: 0 µg/mL
- Antibiotic MIC, Erythromycin [5, 13]: 0 µg/mL
- Antibiotic MIC, Linezolid [5, 13]: 0 µg/mL
- Antibiotic MIC, Vancomycin [5, 13]: 0 µg/mL
- Antibacterial activity relative to PapMA-1 [6]: twice to four times higher
